Experimental data as given in paper PMC10440746, “Biosynthesis of 3,6-Dideoxy-heptoses for the Capsular Polysaccharides of Campylobacter jejuni” (Biochemistry, 2023).

Key:
[1] = test system: T1, C3-dehydratase (HS:5); assay: coupled glutamate dehydrogenase assay, NADPH oxidation at […] nm; format: biochemical, Campylobacter; settings: pH 7.5, 25 °C; 0.2 mM PLP, 4.0 mM L-glutamate; 50 mM ammonium bicarbonate; apparent
T1 construct: full length, N-terminal 21-residue His6 tag (pET-28a), codon-optimised gene, E. coli BL21(DE3)

[2] = test system: C5-epimerase (HS:5); settings: pH 7.5, 25 °C; 50 mM HEPES/KOH; 300 μM NADPH; apparent

| Structure (SMILES) | Km [1] | Km [2] |
| --- | --- | --- |
| Nc1nc2c(ncn2[C@@H]2O[C@H](COP(=O)(O)OP(=O)(O)O[C@H]3O[C@H](CCO)C(=O)[C@H](O)[C@@H]3O)[C@@H](O)[C@H]2O)c(=O)[nH]1 [compound 5, GDP-6-deoxy-4-keto-α-D-lyxo-heptose] | 840 ± 60 µM | – |
| Nc1nc2c(ncn2[C@@H]2O[C@H](COP(=O)(O)OP(=O)(O)O[C@H]3O[C@H](CCO)C(=O)C[C@@H]3O)[C@@H](O)[C@H]2O)c(=O)[nH]1 [compound 8, GDP-3,6-dideoxy-4-keto-α-D-threo-heptose] | – | 480 ± 80 µM |
